Reference: patent publication US20200207782A1, “CHEMICALLY ACTIVATED WATER-SOLUBLE PRODRUG” (SUMITOMO DAINIPPON PHARMA CO., LTD, priority 2017, published 2020)
Converted amounts (≈) assume the structure as drawn. “And” between values parts separate entries of the source, which are not always exact repeats. Identical values can stand only once. Counter-ions that a name gives are not always drawn.

Experiments:
physchem = settings: thermodynamic from solid; for solubility at 24 h: pH 2, aqueous buffer
Description: The solubility of the water-soluble prodrugs described in the Examples and the Reference Examples was measured. […] The filtrate was measured by HPLC.

[1] = Solution stability test (residual ratio and generation of active form in buffers of pH 2.0 to 9.0); type: physicochemical; parameters: Rate of generation of active form after 24 hours in buffer with pH of 7.4: tested at 25 µM; settings: for Residual ratio / Rate of generation of active form after 24 hours in buffer with pH of 7.4: 25° C.; for Residual ratio: 25 umol/L; for Degradation behaviour in buffers (in words): pH 2.0 to 9.0; for Rate of generation of active form after 24 hours in buffer with pH of 7.4: pH 7.4 buffer
Description: The test compounds were incubated at 25° C. at a concentration of 25 umol/L in a buffer prepared to have a pH of 2.0, 3.0, 5.0, 7.4, and 9.0. The compounds were measured by HPLC after 0, 3, 6, 9, 12, and 24 hours.
The buffers used at each pH are the following. • pH 2.0: 50 mmol/L glycine buffer • pH 3.0: 50 mmol/L citrate buffer • pH 5.0: 50 mmol/L citrate buffer • pH 7.4: 50 mmol/L phosphate buffer • pH 9.0: 50 mmol/L glycine buffer
The measurement conditions for HPLC are the following.
The yield of the Example and Reference Example compounds and active forms is calculated with each of the peak area of the Example and Reference Example compounds at 0 minutes and the peak area upon dissolution of the corresponding active form at 100 umol/L as 100%. The yield is denoted in terms of %

[2] = Evaluation of conversion rate to active form in CD1 mouse plasma; type: in vitro ADME; settings: CD1 mouse plasma, incubation time 120 minutes
Description: (§1) The ratio of decrease of a test compound and the conversion ratio to a corresponding active form (2-acetylthieno[3,2-f][1]benzofuran-4,8-dione) in human plasma and CD1 mouse plasma were measured for Example 1.
(§2) The test compounds were incubated at 37° C. at a concentration of 10 umol/L in human plasma (cat. no. 12250210, Cosmo Bio) and CD1 mouse plasma (cat. no. AP3054, KAC) and retrieved for a given time (0, 5, 10, 30, 60, and 120 minutes) and deproteinized, then analyzed by LC-MS. Acetonitrile comprising each of 10% quantity of 1 mol/L hydrochloric acid, 1% quantity of 46% citric acid, and phenytoin as an internal standard was used for deproteinization.
(§3) LC-MS measurement conditions were the following.
(§4) The yield of the Examples compounds and active form 2-acetylthieno[3,2-f][1]benzofuran-4,8-dione is calculated with each of the peak area of the Example compounds at 0 minutes and the peak area upon dissolution of 2-acetylthieno[3,2-f][1]benzofuran-4,8-dione at 100 umol/L as 100%. The yield is denoted in terms of %.
(§5) In the same manner as Example 1, the conversion ratio to an active form was measured for each of the various test compounds in human plasma and CD1 mouse plasma, with incubation time as 120 minutes. It was confirmed that the series of compounds of the invention was converted to an active form with a small interspecies difference in human plasma and CD1 mouse plasma.
(§6) The yield of the active forms is calculated with the each peak area upon dissolution of the generated active form at 100 umol/L as 100%. The yield is denoted in terms of %.

[3] = Evaluation of conversion rate to active form in human plasma; type: in vitro ADME; settings: Human plasma, incubation time 120 minutes
Description: as §1, §2, §3, §4, §5, §6

With `CC(=O)c1cc2c(o1)C(=O)c1cccc(O)c1C2=O` [2-acetyl-5-hydroxynaphtho[2,3-b]furan-4,9-dione, reference compound] as the molecule, how does the solubility (physchem; 50 mmol/L glycine buffer, pH 3, aqueous buffer) read?
Its solubility is 1 µg/mL (≈ 3.9 µM).

With `CC1=CC(=O)c2ccccc2C1=O` [2-methylnaphthalen-1,4-dione, reference compound] as the molecule, how does the solubility at 24 h (physchem; 50 mmol/L glycine buffer) read?
Its solubility at 24 h is 97 µg/mL (≈ 563 µM).

With `O=C1C(=O)C(c2ccccc2)=C2OCOC2=C1c1ccccc1` [4,7-diphenyl-1,3-benzodioxol-5,6-dione, reference compound] as the molecule, how does the solubility at 24 h (physchem; 50 mmol/L glycine buffer) read?
Its solubility at 24 h is 0.3 µg/mL (≈ 0.986 µM).

Which results are given for `Cc1cc(OC(=O)NCCNCC(=O)O)c2ccccc2c1OC(=O)NCCNCC(=O)O` [Example 2, 2,2′-[(2-Methylnaphthalene-1,4-diyl)bis(oxycarbonyliminoethane-2,1-diylimino)]diacetic acid dihydrochloride]?
Residual ratio ([1]; pH2.0 buffer, 0 hr): 100%; Residual ratio ([1]; pH2.0 buffer, 3 hr): 100%; Residual ratio ([1]; pH2.0 buffer, 6 hr): 99.8%; Residual ratio ([1]; pH2.0 buffer, 9 hr): 99.7%; Residual ratio ([1]; pH2.0 buffer, 12 hr): 102%; Residual ratio ([1]; pH2.0 buffer, 24 hr): 100%; Degradation behaviour in buffers (in words) [1]: pH dependent and chemical degradation progressed; Residual ratio ([1]; pH3.0 buffer, 0 hr): 101%; Residual ratio ([1]; pH3.0 buffer, 3 hr): 101%; Residual ratio ([1]; pH3.0 buffer, 6 hr): 101%; Residual ratio ([1]; pH3.0 buffer, 9 hr): 100%; Residual ratio ([1]; pH3.0 buffer, 12 hr): 100%; Residual ratio ([1]; pH3.0 buffer, 24 hr): 101%; Residual ratio ([1]; pH5.0 buffer, 0 hr): 101%; Residual ratio ([1]; pH5.0 buffer, 3 hr): 101%; Residual ratio ([1]; pH5.0 buffer, 6 hr): 102%; Residual ratio ([1]; pH5.0 buffer, 9 hr): 102%; Residual ratio ([1]; pH5.0 buffer, 12 hr): 100%; Residual ratio ([1]; pH5.0 buffer, 24 hr): 102%; Residual ratio ([1]; pH7.4 buffer, 0 hr): 102%; Residual ratio ([1]; pH7.4 buffer, 3 hr): 50.7%; Residual ratio ([1]; pH7.4 buffer, 6 hr): 32.0%; Residual ratio ([1]; pH7.4 buffer, 9 hr): 16.2%; Residual ratio ([1]; pH7.4 buffer, 12 hr, dihydrochloride): 0%; Residual ratio ([1]; pH7.4 buffer, 24 hr): 0.0%; Rate of generation of active form after 24 hours in buffer with pH of 7.4 [1]: 7%; Residual ratio ([1]; pH9.0 buffer, 0 hr): 44.5%; Residual ratio ([1]; pH9.0 buffer, 3 hr, dihydrochloride): 0%; Residual ratio ([1]; pH9.0 buffer, 6 hr): 0.0%; Residual ratio ([1]; pH9.0 buffer, 9 hr): 0.0%; Residual ratio ([1]; pH9.0 buffer, 12 hr): 0.0%; Residual ratio ([1]; pH9.0 buffer, 24 hr): 0.0%; Stability in solution (in words) ([1]; pH of 2.0, 25° C.): very stable; Stability in solution (in words) ([1]; pH of 3.0, 25° C.): very stable; Stability in solution (in words) ([1]; pH of 5.0, 25° C.): very stable; solubility at 24 h (physchem): > 10000 µg/mL

For `CC1(C)CCc2c(OC(=O)NCCNCC(=O)O)c(OC(=O)NCCNCC(=O)O)c3ccccc3c2O1` [Example 4, 2,2′-[(2,2-Dimethyl-3,4-dihydro-2H-benzo[H]chromene-5,6-diyl)bis(oxycarbonyliminoethane-2,1-diylimino)]diacetic acid dihydrochloride], which “Degradation behaviour in buffers (in words)” value (“Degradation behaviour” for short) [1] is on record?
Its value is “pH dependent and chemical degradation progressed”.

What about the “Stability in solution (in words)” value ([1]; pH of 2.0, 25° C.) of the same molecule?
Its value is “sufficient stability”.

What about the “Stability in solution (in words)” value ([1]; pH of 3.0, 25° C.) of the same molecule?
Its value is “sufficient stability”.

And the solubility at 24 h (physchem)?
The solubility at 24 h was over 10000 µg/mL.

What does the source list for `NCCCNC(=O)Oc1c(OC(=O)NCCCN)c(-c2ccccc2)c2c(c1-c1ccccc1)OCO2` [Example 6, 4,7-Diphenyl-1,3-benzodioxole-5,6-diyl bis[(3-aminopropyl)carbamate]dihydrochloride]?
Residual ratio ([1]; pH2.0 buffer, 0 hr): 100%; Residual ratio ([1]; pH2.0 buffer, 3 hr): 100%; Residual ratio ([1]; pH2.0 buffer, 6 hr): 100%; Residual ratio ([1]; pH2.0 buffer, 9 hr): 100%; Residual ratio ([1]; pH2.0 buffer, 12 hr): 100%; Residual ratio ([1]; pH2.0 buffer, 24 hr): 100%; Degradation behaviour in buffers (in words) [1]: pH dependent and chemical degradation progressed; Residual ratio ([1]; pH3.0 buffer, 0 hr): 100%; Residual ratio ([1]; pH3.0 buffer, 3 hr): 100%; Residual ratio ([1]; pH3.0 buffer, 6 hr): 100%; Residual ratio ([1]; pH3.0 buffer, 9 hr): 100%; Residual ratio ([1]; pH3.0 buffer, 12 hr): 100%; Residual ratio ([1]; pH3.0 buffer, 24 hr): 100%; Residual ratio ([1]; pH5.0 buffer, 0 hr): 100%; Residual ratio ([1]; pH5.0 buffer, 3 hr): 100%; Residual ratio ([1]; pH5.0 buffer, 6 hr): 99.8%; Residual ratio ([1]; pH5.0 buffer, 9 hr): 99.6%; Residual ratio ([1]; pH5.0 buffer, 12 hr): 99.5%; Residual ratio ([1]; pH5.0 buffer, 24 hr): 99.5%; Residual ratio ([1]; pH7.4 buffer, 0 hr): 96.8%; Residual ratio ([1]; pH7.4 buffer, 3 hr): 65.8%; Residual ratio ([1]; pH7.4 buffer, 6 hr): 45.2%; Residual ratio ([1]; pH7.4 buffer, 9 hr): 31.4%; Residual ratio ([1]; pH7.4 buffer, 12 hr): 22.2%; Residual ratio ([1]; pH7.4 buffer, 24 hr): 17% and 16.5%; Residual ratio ([1]; pH9.0 buffer, 0 hr): 10.4%; Residual ratio ([1]; pH9.0 buffer, 3 hr): 0.4%; Residual ratio ([1]; pH9.0 buffer, 6 hr): 0.7%; Residual ratio ([1]; pH9.0 buffer, 9 hr): 0.7%; Residual ratio ([1]; pH9.0 buffer, 12 hr): 0.9%; Residual ratio ([1]; pH9.0 buffer, 24 hr): 0.9%; Stability in solution (in words) ([1]; pH of 2.0, 25° C.): very stable; Stability in solution (in words) ([1]; pH of 3.0, 25° C.): very stable; Stability in solution (in words) ([1]; pH of 5.0, 25° C.): very stable; solubility at 24 h (physchem): > 10000 µg/mL

With `CN1CC[C@H](c2c(O)cc(OC(=O)N(C)CCN)c3c(=O)cc(-c4ccccc4Cl)oc23)[C@H](O)C1` [Example 9, 2-(2-chlorophenyl)-7-hydroxy-8-[(3S,4R)-3-hydroxy-1-methylpiperidin-4-yl]-4-oxo-4H-chromen-5-yl (2-aminoethyl)methylcarbamate ditrifluoroacetate] as the molecule, how does the “Degradation behaviour” value [1] read?
The value was “pH dependent and chemical degradation progressed”.

What about the “Rate of generation of active form after 24 hours in buffer with pH of 7.4” value (from here on “Rate of generation of active form”) [1] of the same molecule?
Its value is 23%.

And the “Stability in solution (in words)” value ([1]; pH of 2.0, 25° C.)?
Its value is “stable”.

And the “Stability in solution (in words)” value ([1]; pH of 3.0, 25° C.)?
Its value is “stable”.

What about the “Stability in solution (in words)” value ([1]; pH of 5.0, 25° C.) of the same molecule?
The value was “stable”.

Which “Degradation behaviour” value [1] does the source give for `CNCCN(C)C(=O)Oc1cc(O)c2c(=O)cc(-c3ccccc3Cl)oc2c1[C@H]1CCN(C)C[C@H]1O` [Example 10, 2-(2-Chlorophenyl)-5-hydroxy-8-[(3S,4R)-3-hydroxy-1-methylpiperidin-4-yl]-4-oxo-4H-chromen-7-yl methyl[2-(methylamino)ethyl]carbamate ditrifluoroacetate] here?
The value was “pH dependent and chemical degradation progressed”.

What about the “Rate of generation of active form” value [1] of the same molecule?
The value was 96%.

And the “Stability in solution (in words)” value ([1]; pH of 2.0, 25° C.)?
Its value is “sufficient stability”.

And the “Stability in solution (in words)” value ([1]; pH of 3.0, 25° C.)?
The value was “sufficient stability”.

Which results are given for `CNCCN(C)C(=O)Oc1cc(O)c([C@H]2CCN(C)C[C@H]2O)c2oc(-c3ccccc3Cl)cc(=O)c12` [Example 11, 2-(2-Chlorophenyl)-7-hydroxy-8-[(3S,4R)-3-hydroxy-1-methylpiperidin-4-yl]-4-oxo-4H-chromen-5-yl methyl[2-(methylamino)ethyl]carbamate ditrifluoroacetate]?
Degradation behaviour in buffers (in words) [1]: pH dependent and chemical degradation progressed; Stability in solution (in words) ([1]; pH of 2.0, 25° C.): stable; Stability in solution (in words) ([1]; pH of 3.0, 25° C.): stable; Stability in solution (in words) ([1]; pH of 5.0, 25° C.): stable

Which “Conversion ratio to an active form (Measurement value %)” value [2] does the source give for `COC(=O)[C@H](CCNC(=O)Oc1c(C)c(CCCCCCCCCCOC(=O)OC(C)(C)C)c(OC(=O)NCC[C@H](NC(=O)OC(C)(C)C)C(=O)OC)c(OC)c1OC)NC(=O)OC(C)(C)C` [Reference Example 11, Dimethyl (2S,2′S)-4,4′-[(2-{10-[(tert-butoxycarbonyl)oxy]decayl}-5,6-dimethoxy-3-methylbenzene-1,4-diyl)bis(oxycarbonylimino)]bis{2-[(tert-butoxycarbonyl)amino]butanoate}] here?
Its value is 100%.

And the “Rate of generation of active form” value [1]?
The value was 91%.

And the “Conversion ratio to an active form (Measurement value %)” value [3]?
Its value is 100%.
